Experimental data taken from the supplement of paper PMC4862054.

Key:
Conditions in all cases: incubation time: 72 h
HDQ-P1 [1] = test: normalised response (% of control), CellTiter-Glo; higher = more viable cells (100 = DMSO, 0 = benzethonium chloride kill control)
How it was run: (§1)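 Breast cancer cell lines (20 µl suspension) were seeded into 384-well plates holding compound at 5 concentrations in 10-fold steps over a compound-specific 10,000-fold range, then incubated 72 h. CellTox Green fluorescence (485/520 nm) was read first, then CellTiter-Glo luminescence after 10 min at room temperature. Each plate was normalised to 0.1 % DMSO (100) and a positive kill control (0). Each value is the normalised signal at a single concentration of the series.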

CAL-51 [2] = test: as above
How it was run: as §1

CAL-120 [3] = test: as above
How it was run: as §1

SK-BR-3 = test: as above
How it was run: as §1

MDA-MB-436 [4] = test: as above
How it was run: as §1

Hs578T [5] = test: as above
How it was run: as §1

MCF-10A [6] = test: as above
How it was run: as §1

BT-474 [7] = test: as above
How it was run: as §1

MDA-MB-231 [8] = test: as above
How it was run: as §1

BT-549 [9] = test: as above
How it was run: as §1

MDA-MB-468 [10] = test: as above
How it was run: as §1

CAL-148 [11] = test: as above
How it was run: as §1

HCC1143 [12] = test: as above
How it was run: as §1

MFM-223 [13] = test: as above
How it was run: as §1

MDA-MB-453 [14] = test: as above
How it was run: as §1

HCC1937 [15] = test: as above
How it was run: as §1

CAL-85-1 [16] = test: as above
How it was run: as §1

DU-4475 [17] = test: as above
How it was run: as §1

HCC1599 [18] = test: as above
How it was run: as §1

HDQ-P1 [19] = test: normalised response (% of control), CellTox Green; higher = less cell death (100 = DMSO, 0 = benzethonium chloride kill control)
How it was run: as §1

CAL-51 [20] = test: as above
How it was run: as §1

CAL-120 [21] = test: as above
How it was run: as §1

MDA-MB-436 [22] = test: as above
How it was run: as §1

Hs578T [23] = test: as above
How it was run: as §1

MCF-10A [24] = test: as above
How it was run: as §1

BT-474 [25] = test: as above
How it was run: as §1

MDA-MB-231 [26] = test: as above
How it was run: as §1

BT-549 [27] = test: as above
How it was run: as §1

MDA-MB-468 [28] = test: as above
How it was run: as §1

CAL-148 [29] = test: as above
How it was run: as §1

HCC1143 [30] = test: as above
How it was run: as §1

MFM-223 [31] = test: as above
How it was run: as §1

MDA-MB-453 [32] = test: as above
How it was run: as §1

HCC1937 [33] = test: as above
How it was run: as §1

CAL-85-1 [34] = test: as above
How it was run: as §1

DU-4475 [35] = test: as above
How it was run: as §1

HCC1599 [36] = test: as above
How it was run: as §1

Row | Structure (SMILES) | normalised response (HDQ-P1 [1]) | normalised response (CAL-51 [2]) | normalised response (CAL-120 [3]) | normalised response (SK-BR-3) | normalised response (MDA-MB-436 [4]) | normalised response (Hs578T [5]) | normalised response (MCF-10A [6]) | normalised response (BT-474 [7]) | normalised response (MDA-MB-231 [8]) | normalised response (BT-549 [9]) | normalised response (MDA-MB-468 [10]) | normalised response (CAL-148 [11]) | normalised response (HCC1143 [12]) | normalised response (MFM-223 [13]) | normalised response (MDA-MB-453 [14]) | normalised response (HCC1937 [15]) | normalised response (CAL-85-1 [16]) | normalised response (DU-4475 [17]) | normalised response (HCC1599 [18]) | normalised response (HDQ-P1 [19]) | normalised response (CAL-51 [20]) | normalised response (CAL-120 [21]) | normalised response (MDA-MB-436 [22]) | normalised response (Hs578T [23]) | normalised response (MCF-10A [24]) | normalised response (BT-474 [25]) | normalised response (MDA-MB-231 [26]) | normalised response (BT-549 [27]) | normalised response (MDA-MB-468 [28]) | normalised response (CAL-148 [29]) | normalised response (HCC1143 [30]) | normalised response (MFM-223 [31]) | normalised response (MDA-MB-453 [32]) | normalised response (HCC1937 [33]) | normalised response (CAL-85-1 [34]) | normalised response (DU-4475 [35]) | normalised response (HCC1599 [36])
1 | Cc1c(Cn2c(C)nc3c(C(=O)O)cc(N4CCOCC4)cc32)cccc1C(F)(F)F (1000 nM) | 105% | 74.1% | 99.8% | 106% | 99.5% | 103% | 115% | 96.2% | 100% | 75.5% | 80.9% | 101% | 103% | 104% | 93.1% | 94.4% | 98.1% | 95.1% | 117% | 115% | 100% | 109% | 107% | 105% | 110% | 102% | 107% | 111% | 125% | 107% | 119% | 105% | 112% | 106% | 104% | 111% | 92.3%
2 | CC/C(=C(\c1ccc(O)cc1)c1ccc(OCCN(C)C)cc1)c1ccccc1 [4-hydroxytamoxifen] (1000 nM) | 98.8% | 102% | 92.5% | 99.2% | 101% | 107% | 98.8% | 101% | 97% | 93.6% | 91.6% | 102% | 98.9% | 95.6% | 102% | 93.9% | 97.2% | 98.5% | 105% | 97.3% | 108% | 108% | 93.6% | 97.2% | 103% | 97.7% | 108% | 114% | 128% | 57.6% | 88.3% | 95.9% | 111% | 86.6% | 120% | 105% | 95.8%
3 | CCCCC/C=C/C=C1/C(=O)C=C[C@@H]1C/C=C\CCCC(=O)O [15D-PGJ2] (80 nM) | 99.9% | 123% | 103% | 103% | 98.5% | 107% | 111% | 101% | 101% | 99.1% | 99.2% | 102% | 104% | 99.9% | 96.8% | 99.1% | 96.2% | 102% | 88.8% | 111% | 113% | 108% | 116% | – | 104% | 98.9% | 86.6% | 105% | 155% | 103% | 82.5% | 101% | 113% | 123% | 125% | 110% | 109%
4 | O=C(Nc1c[nH]nc1-c1nc2ccc(CN3CCOCC3)cc2[nH]1)NC1CC1 [AT9283] (100 nM) | 96.9% | 69% | 85% | 86.4% | 99% | 88.8% | 71.8% | 73.8% | 78.8% | 82.1% | 29.7% | 46.6% | 84.8% | 89.2% | 141% | 93.8% | 105% | 88.9% | 102% | 99.6% | 71.7% | 84.9% | 86.7% | 94.9% | 70.3% | 103% | 14.5% | 121% | 70.7% | 20.3% | 101% | 103% | 100% | 85% | 84.6% | 97.6% | 110%
5 | CC(=O)OC[C@H]1O[C@@H]([S-])[C@H](OC(C)=O)[C@@H](OC(C)=O)[C@@H]1OC(C)=O.CCP(CC)CC.[Au+] [Auranofin] (250 nM) | 101% | 46.3% | 99.4% | 99.8% | 90.7% | 97.4% | 118% | 99% | 101% | 68.9% | 18.5% | 101% | 91.8% | 98.5% | 90.7% | 87.4% | 93.2% | 102% | 112% | 115% | 80.4% | 107% | 109% | 103% | 115% | 95.5% | 125% | 103% | 79.5% | 107% | 123% | 98.4% | 105% | 108% | 120% | 110% | 104%
6 | O=S(=O)(c1cccc2cnccc12)N1CCCNCC1 [Fasudil] (5000 nM) | 101% | 94.9% | 89.4% | 107% | 113% | 99.7% | 89% | 96.5% | 106% | 95.9% | 105% | 97.1% | 96.3% | 102% | 95.7% | 105% | 122% | 96.8% | 101% | 75.7% | 110% | 94.5% | 95.3% | 66% | 83.4% | 97.1% | 97.6% | 99.9% | 70.9% | 98.2% | 98.9% | 94.8% | 100% | 109% | 102% | 99% | 103%
7 | CS(=O)(=O)N1CCN(Cc2cc3nc(-c4cccc5[nH]ncc45)nc(N4CCOCC4)c3s2)CC1 [Pictilisib] (1000 nM) | 47.1% | 57.4% | 64.9% | 40.4% | 72.7% | 64.3% | 38.4% | 69.4% | 70.5% | 58.7% | 72.9% | 66.3% | 68% | 66.5% | 38.6% | 73.9% | 63.5% | 86.5% | 96.1% | 87.1% | 92.7% | 100% | 99.6% | 108% | 44.2% | 97.5% | 99.3% | 125% | 45.4% | 53.4% | 62.9% | 76.8% | 96.7% | 126% | – | 98.3% | 103%
8 | c1cc(CN2CCCNCCNCCCNCC2)ccc1CN1CCCNCCNCCCNCC1 [Plerixafor] (1000 nM) | 101% | 111% | 111% | 80% | 102% | 91.4% | 81.8% | 93.7% | 96.9% | 105% | 98.1% | 90.4% | 97.3% | 87.3% | 80.1% | 101% | 96.1% | 92.1% | 102% | 58.5% | 89.1% | 96.6% | – | – | 86.6% | 95.2% | 82.7% | 107% | 85% | 92.3% | – | 97.4% | 99% | 54.1% | 105% | 91.8% | 88.8%
9 | CC(C)N(CCCNC(=O)Nc1ccc(C(C)(C)C)cc1)C[C@H]1O[C@@H](n2cc(Br)c3c(N)ncnc32)[C@H](O)[C@@H]1O [SGC0946] (1000 nM) | 102% | 118% | 100% | 95.7% | 93.4% | 103% | 97.9% | 103% | 92.1% | 95.5% | 86.5% | 91.3% | 96.5% | 94% | 104% | 97.3% | 102% | 98.4% | 102% | 103% | 100% | 95.7% | 97.8% | – | 107% | 97.3% | 101% | 99.9% | 111% | – | – | 98.4% | 105% | 93.1% | 96.3% | 95.8% | 91.8%
